Experiment: Comparative ex vivo study of the percutaneous absorption of amitriptyline (Frantz cell)
Type: in vitro ADME
Details: human skin ex vivo, compositions with 10% amitriptyline hydrochloride
Procedure: Comparative ex vivo study of the percutaneous absorption of amitriptyline in a formulation A in aqueous gel form (invention) and in a formulation B in cream form (comparative). Each of compositions A and B was applied on separate human skin samples. For each composition, the experiment was repeated 3 times with 3 skin samples from 3 different donors, i.e., 9 samples. The skin samples are mounted in a Frantz cell and are heated to a surface temperature of 32° C.±1° C. Composition A or B is spread evenly using a spatula on each skin sample at a rate of 10 mg per cell, corresponding to 5 mg/cm^2 of skin. The skin samples are rinsed 16 hours after application. Each skin sample was placed with a tweezers on a paper towel (dermis facing downward). The stratum corneum is removed using adhesive strips. After removing the stratum corneum, the sample is perforated. The epidermis is then separated from the dermis. Each of them is placed in separate bottles. The different samples were then extracted.

Compound: CN(C)CCC=C1c2ccccc2CCc2ccccc21 [amitriptyline, Amitriptyline]
- systemic passage of amitriptyline: less than 0.1 % of the administered dose

Source: patent US20230103462A1, “TOPICAL PHARMACEUTICAL COMPOSITION IN GEL FORM COMPRISING AT LEAST AMITRIPTYLINE FOR USE IN THE TREATMENT OF NEUROPATHIC PHANTOM LIMB PAIN” (priority 2021, published 2023)
